Reference: patent US11459323B2, “Monocyclic β-lactam compound for treating bacterial infection” (MEDSHINE DISCOVERY INC., priority 2018, dated 2022)
In brackets after ≈: the same amount, converted by molar mass. Read-outs that look alike come from different tables or passages of the source. Marks after values point to notes of the source that are not given here.

Legend:
[1] = Pharmacokinetic experiment of the compounds in mice; assay type: in vivo; conditions: mouse, plasma, 2 mg/kg, Male CD-1 mice, fasting, 2 mpk; for Vd / clearance / AUC(0-t) / half-life / C0: intravenous injection; for Vd: read-out: Apparent distribution volume Vdss; for clearance: read-out: Clearance rate Cl; for AUC(0-t): read-out: Exposure AUC0-last; for half-life: read-out: Half-life period T1/2 (converted); for C0: read-out: Initial concentration C0; for bioavailability / Cmax: second section of Table 7 (intravenous injection); for Cmax: read-out: Maximum concentration Cmax
Method: In this experiment, six CD-1 mice (males) were divided into 2 groups (2 groups) according to their similar body weight. Group 1 and Group 2 were given respectively a single intravenous and intraperitoneal injection of the compounds of embodiment 13, embodiment 17, embodiment 32 and embodiment 34, each compound was at 2 mg/kg. The vehicles for intravenous and intraperitoneal injections were 5% dimethyl sulfoxide/95% water (10% polyoxyethylene castor oil), K2-EDTA (anticoagulant).
About 0.02 mL of blood samples from the saphenous vein were collected from all experimental animals, and the actual blood collection time was recorded. In this experiment, the deviation between the actual blood collection time and the theoretical blood collection time was in accordance with the regulations (the deviation of time points within 1 hour after administration were within 1 minute, and other deviations were within 5% of the theoretical time). After the blood samples were collected, they were immediately transferred to labeled centrifuge tubes containing K2 EDTA (0.5 M), followed by centrifugation (3,000 g, 4° C., 15 minutes) and the plasma was collected. The plasma was transferred to pre-cooled centrifuge tubes, quickly frozen in dry ice, and stored in an ultra-low temperature refrigerator at −60° C. or lower until LC-MS/MS analysis.

[2] = test system: Pseudomonas aeruginosa PA14; experiment: Lungs of immunosuppressed mice infected with Pseudomonas aeruginosa (1), lung bacterial load; assay type: in vivo; conditions: 24 hours after infection, day, ip at 2 h, 4 h, 6 h, 8 h
Method: Pseudomonas aeruginosa PA14. 64 mice were intraperitoneally injected with 150 mg/kg cyclophosphamide on the first day and the fourth day to give immunosuppressed mice. […] [table] The mice were injected with 50 μL of bacterial solution (2×10^3 CFU) through the airway. 2 hours after the infection, 4 mice in the model group was sacrificed by removing cervical vertebra. Two hours after infection, the drugs were administered by groups, and the mice were administered intraperitoneally once at 2 hours, 4 hours, 6 hours, and 8 hours, a total of 4 times. Mice of each group were sacrificed by removing cervical vertebra 24 hours after infection, lung and kidney tissues were taken aseptically and put into sterilized tissue homogenate tubes, weighed, and an appropriate amount of normal saline (NS) was added, the mixture was homogenized by a homogenizer for 1 min, the lung tissues of the model group were diluted 10^4, 10^5, 10^6 times, the lung tissues of each administration group were diluted 10, 100 times, the kidney tissues of the model group were diluted 10^2, […], 10^4 times, and the lung tissues of each administration group were diluted 10 times, the obtained mixtures were coated on TSA plates using spiral coater, then incubated at 37° C. overnight, and the CFU was counted with a colony counter. Graphpad Prism mapping software was used to make scatter plots of lung tissue CFU. SPSS19.0 software was used to count CFU and average body weight, and analysis of variance was used to analyze differences between groups.

[3] = test system: K. pneumoniae ATCC BAA-205 (TEM-1/SHV-1/SHV-12); experiment: MIC by micro-liquid dilution method (CLSI); assay type: cell-based, Klebsiella pneumonia; conditions: Klebsiella pneumoniae, ATCCBAA205
[4] = test system: K. pneumoniae ATCC BAA-1705 (KPC-2); experiment: MIC by micro-liquid dilution method (CLSI); assay type: cell-based, Klebsiella pneumonia; conditions: Klebsiella pneumoniae, ATCCBAA1705
[5] = test system: K. pneumoniae ATCC BAA-2470 (NDM-1); experiment: MIC by micro-liquid dilution method (CLSI); assay type: cell-based, Klebsiella pneumonia; conditions: Klebsiella pneumoniae, ATCCBAA2470
[6] = test system: E. coli ATCC BAA-2523 (OXA-48); experiment: MIC by micro-liquid dilution method (CLSI); assay type: cell-based; conditions: Escherichia coli, ATCCBAA2523
Source text: (§1) Three strains of Klebsiella pneumonia, K. pneumoniae ATCC BAA-205 (TEM-1/SHV-1/SHV-12), K. pneumoniae ATCC BAA-1705 (KPC-2), K. pneumoniae ATCC BAA-2470 (NDM-1); three strains of Pseudomonas aeruginosa, P. aeruginosa NCTC13437 (VIM-10; VEB-1), P. aeruginosa PA 14 and P. aeruginosa ATCC 35151; four strains of Escherichia coli, E. coli NCTC 13476 (IMP-1 type), E. coli ATCC BAA-2523 (OXA-48), E. coli MG1655Δtol C, E. coli ATCC 25922; one strain of Acinetobacter baumannii, A. baumannii ATCC 17978 and one strain of Staphylococcus aureus, S. aureus NRS384 were used to determine the minimum inhibitory concentration (MIC) of the compounds by micro-liquid dilution method according to the Institute of Clinical and Laboratory Standard (CLSI) requirements.

E. coli MG1655Δtol C = experiment: MIC by micro-liquid dilution method (CLSI); assay type: cell-based; conditions: Escherichia coli
Source text: as §1

[7] = test system: E. coli NCTC 13476 (IMP-1 type); experiment: MIC by micro-liquid dilution method (CLSI); assay type: cell-based; conditions: Escherichia coli
Source text: as §1

P. aeruginosa PA 14 = experiment: MIC by micro-liquid dilution method (CLSI); assay type: cell-based; conditions: Pseudomonas aeruginosa, PA14
Source text: as §1

P. aeruginosa ATCC 35151 = experiment: MIC by micro-liquid dilution method (CLSI); assay type: cell-based; conditions: Pseudomonas aeruginosa
A. baumannii ATCC 17978 = experiment: MIC by micro-liquid dilution method (CLSI); assay type: cell-based; conditions: Acinetobacter baumannii
E. coli ATCC 25922 = experiment: MIC by micro-liquid dilution method (CLSI); assay type: cell-based; conditions: Escherichia coli
[8] = test system: Acinetobacter baumannii ATCC-BAA-1605; experiment: MIC on Acinetobacter baumannii strains; assay type: cell-based; conditions: ATCCBAA1605, ATCC-BAA-1605, read-out: MIC
Source text: (§2) Twelve strains of Acinetobacter baumannii, A. baumannii ATCC 17978 (ATCC-BAA-1605, ATCC-BAA-1789, ATCC-BAA-1790, ATCC-BAA-1791, ATCC-BAA-1792, ATCC-BAA-1793, ATCC-BAA-1794, ATCC-BAA-1795, ATCC-BAA-1799, ATCC-BAA-1800, ATCC 19606, ATCC 17978) were used to determine the minimum inhibitory concentration (MIC) of the compounds by micro-liquid dilution method according to the Institute of Clinical and Laboratory Standard (CLSI) requirements.

[9] = test system: Acinetobacter baumannii ATCC-BAA-1791; experiment: MIC on Acinetobacter baumannii strains; assay type: cell-based; conditions: ATCCBAA1791
Source text: as §2

[10] = test system: Acinetobacter baumannii ATCC-BAA-1793; experiment: MIC on Acinetobacter baumannii strains; assay type: cell-based; conditions: ATCCBAA1793, ATCC-BAA-1793, read-out: MIC
Source text: as §2

[11] = K. pneumoniae ATCCBAA-205, read-out: MIC
[12] = K. pneumoniae ATCCBAA-1705, read-out: MIC
[13] = K. pneumoniae ATCCBAA-2470, read-out: MIC
[14] = E. coli ATCCBAA-2523, read-out: MIC
[15] = P. aeruginosa PA 14, read-out: MIC
[16] = A. baumannii ATCC17978, read-out: MIC
[17] = E. coli NCTC13476, read-out: MIC
[18] = E. coli ATCC25922, read-out: MIC

Row | Structure (SMILES) | Vd [1] [L/kg] | clearance [1] [mL/min/kg] | AUC(0-t) [1] [µM·h] | half-life [1] [min] | C0 [1] [µM] | bioavailability [1] [%] | Cmax [1] [µM] | MIC [6] [µg/mL] | MIC (E. coli MG1655Δtol C) [µg/mL] | MIC (P. aeruginosa ATCC 35151; ATCC35151) [µg/mL] | MIC [3, 11] [µg/mL] | MIC [4, 12] [µg/mL] | MIC [5, 13] [µg/mL] | MIC (P. aeruginosa PA 14; [15]) [µg/mL] | MIC (A. baumannii ATCC 17978; [16]) [µg/mL] | MIC [7, 17] [µg/mL] | also measured
1 | CC1(C)[C@H](NC(=O)/C(=N\O[C@@H](COc2ccc3c(c2)CN(C(=N)N(CCCN)CCCN)C3)C(=O)O)c2csc(N)n2)C(=O)N1OS(=O)(=O)O [Compound 32] | 0.0636 | 1.57 | 5.77 | 30.8 | 11.3 | 140 | 8 | – | – | – | – | – | – | – | – | – | LOG10-of bacterial load ([2]; total dosage 60 mg/kg): 0**; LOG10-of bacterial load ([2]; total dosage 120 mg/kg): 0**; LOG10-of bacterial load ([2]; total dosage 200 mg/kg): 0**
2 | CC1(C)[C@H](NC(=O)/C(=N\OCCOc2ccc3c(c2)CN(C(=N)NCCCN)C3)c2csc(N)n2)C(=O)N1OS(=O)(=O)O [Compound 13] | 0.281 | 8.51 | 6.73 | 28.6 | 18.9 | 88.4 | 5.76 | – | – | – | – | – | – | – | – | – | –
3 | CC1(C)[C@H](C(=O)O)N2C(=O)C[C@H]2S1(=O)=O [Sulbactam, reference compound] | – | – | – | – | – | – | – | 64 (≈ 274 µM) | 32 (≈ 137 µM) | 64 (≈ 274 µM) | – | – | – | – | – | – | MIC [3]: 64 µg/mL (≈ 274 µM); MIC [4]: > 128 µg/mL; MIC [5]: > 128 µg/mL; MIC ([7]; NCTC13476): > 128 µg/mL; MIC (P. aeruginosa PA 14): 8 µg/mL (≈ 34.3 µM); MIC (A. baumannii ATCC 17978; ATCC17978): 2 µg/mL (≈ 8.57 µM); MIC (E. coli ATCC 25922; ATCC25922): 64 µg/mL (≈ 274 µM)
4 | CC1(C)[C@H](NC(=O)/C(=N\OCCOc2ccc3c(c2)CN(C(=N)N(CCCN)CCCN)C3)c2csc(N)n2)C(=O)N1OS(=O)(=O)O [Compound 17] | 0.237 | 4.6 | 11 | 35.8 | 17 | 131 | 10.6 | – | – | – | 2 (≈ 2.87 µM) | 0.25 (≈ 0.359 µM) | 0.25 (≈ 0.359 µM) | 0.5 (≈ 0.718 µM) | ≤ 0.125 | – | MIC [6, 14]: ≤ 0.125 µg/mL; MIC [8]: 4 µg/mL (≈ 5.74 µM); MIC [9]: 0.25 µg/mL (≈ 0.359 µM); MIC [10]: 4 µg/mL (≈ 5.74 µM)
5 | CC1(C)[C@H](NC(=O)/C(=N\O[C@@H](COc2ccc3c(c2)CN(C(=N)NCCCN)C3)C(=O)O)c2csc(N)n2)C(=O)N1OS(=O)(=O)O [Compound 34] | 0.274 | 10.4 | 4.95 | 22.6 | 14.4 | 93.3 | 5.55 | – | – | – | – | – | – | – | – | – | LOG10-of bacterial load ([2]; total dosage 60 mg/kg): 0**; LOG10-of bacterial load ([2]; total dosage 120 mg/kg): 0**; LOG10-of bacterial load ([2]; total dosage 200 mg/kg): 1.10 ± 1.75
6 | CC1(C)[C@H](NC(=O)/C(=N\OCCOc2ccc3c(c2)CCN(C(=N)NC2CCNCC2)C3)c2csc(N)n2)C(=O)N1OS(=O)(=O)O [Compound 12] | – | – | – | – | – | – | – | ≤ 0.125 | ≤ 0.125 | ≤ 0.125 | 16 (≈ 23.5 µM) | 1 (≈ 1.47 µM) | 1 (≈ 1.47 µM) | 2 (≈ 2.94 µM) | 0.5 (≈ 0.736 µM) | 0.25 (≈ 0.368 µM) | MIC (E. coli ATCC 25922; ATCC25922): ≤ 0.125 µg/mL
7 | CC1(C)[C@H](NC(=O)/C(=N\OCCOc2ccc3c(c2)CN(C(=N)N)CC3)c2csc(N)n2)C(=O)N1OS(=O)(=O)O [Compound 10] | – | – | – | – | – | – | – | – | ≤ 0.125 | – | 16 (≈ 26.8 µM) | 4 (≈ 6.7 µM) | 4 (≈ 6.7 µM) | 8 (≈ 13.4 µM) | 4 (≈ 6.7 µM) | 2 (≈ 3.35 µM) | MIC [6, 14]: 0.25 µg/mL (≈ 0.419 µM); MIC (P. aeruginosa ATCC 35151; P. aeruginosa ATCC35151, read-out: MIC): 0.25 µg/mL (≈ 0.419 µM); MIC (E. coli ATCC 25922; [18]): 1 µg/mL (≈ 1.68 µM)
8 | CC1(C)[C@H](NC(=O)/C(=N\OCCOc2ccc3c(c2)CCN(C(=N)N2CCNCC2)C3)c2csc(N)n2)C(=O)N1OS(=O)(=O)O [Compound 11] | – | – | – | – | – | – | – | ≤ 0.125 | ≤ 0.125 | ≤ 0.125 | 16 (≈ 24 µM) | 1 (≈ 1.5 µM) | 1 (≈ 1.5 µM) | 4 (≈ 6.01 µM) | 2 (≈ 3 µM) | 0.5 (≈ 0.751 µM) | MIC (E. coli ATCC 25922; [18]): 0.25 µg/mL (≈ 0.376 µM)
